From patent publication US10316028B2, “Orexin receptor antagonists” (Heptares Therapeutics Limited, priority 2012, dated 2019) come the findings set out here.

Structures are written as SMILES.

This assay addresses T1, human Orexin-2 receptor (Homo sapiens, UniProt O43614).
T1 construct: expressed in transfected cells; host or cells: HEK293 cells (transient transfection, Genejuice); membranes
T1 sequence (O43614 1-444): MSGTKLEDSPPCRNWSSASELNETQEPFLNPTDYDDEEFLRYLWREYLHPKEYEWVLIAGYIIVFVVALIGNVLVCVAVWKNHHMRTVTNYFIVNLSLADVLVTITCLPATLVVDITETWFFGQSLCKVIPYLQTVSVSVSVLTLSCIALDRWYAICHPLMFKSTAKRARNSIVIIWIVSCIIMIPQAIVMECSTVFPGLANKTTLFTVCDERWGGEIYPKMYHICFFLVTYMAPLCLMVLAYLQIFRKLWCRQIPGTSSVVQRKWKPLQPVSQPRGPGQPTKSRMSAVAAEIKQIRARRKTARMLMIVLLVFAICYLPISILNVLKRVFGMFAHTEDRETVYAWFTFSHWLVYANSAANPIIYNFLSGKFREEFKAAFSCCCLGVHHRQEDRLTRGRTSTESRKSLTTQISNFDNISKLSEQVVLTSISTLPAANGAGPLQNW
Nature of the assay: 3H-EMPA radioligand binding assay. As to conditions: 3H-EMPA displacement, membranes of HEK293 cells transfected with human Orexin-2 receptor; KI by Cheng-Prussoff; read-out: OX2 pKi ave (converted). Summed up: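 Membranes from HEK293 cells transiently transfected with human orexin-2 receptor cDNA, assayed with [3H]EMPA. Bound ligand collected on PEI-treated GF/B filters and counted by scintillation; IC50 from inhibition curves, Ki by Cheng-Prusoff.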
As to `COc1cc(F)c(CN2C(=O)N(c3ccc(OC)nc3)S(=O)(=O)c3ccccc32)c(F)c1` [Example 136, 4-(2,6-Difluoro-4-methoxybenzyl)-2-(6-methoxypyridin-3-yl)-2H-1,2,4-benzothiadiazin-3(4H)-one 1,1-dioxide], the Ki was 10.7 nM.
Turning to `COc1ncc(N2C(=O)N(Cc3c(F)cccc3Cl)c3ccccc3S2(=O)=O)cn1` [Example 137, 4-(2-Chloro-6-fluorobenzyl)-2-(2-methoxypyrimidin-5-yl)-2H-1,2,4-benzothiadiazin-3(4H)-one 1,1-dioxide], the Ki was 38 nM.
For `COc1cc(F)c(CN2C(=O)N(c3cccc(OC)n3)S(=O)(=O)c3ccccc32)c(F)c1` [Example 138, 4-(2,6-Difluoro-4-methoxybenzyl)-2-(6-methoxypyridin-2-yl)-2H-1,2,4-benzothiadiazin-3(4H)-one 1,1-dioxide] the value was 1.45 nM.
For the compound `COc1cccc(N2C(=O)N(Cc3c(F)cc(F)cc3Cl)c3ccccc3S2(=O)=O)n1` [Example 139, 4-(2-Chloro-4,6-difluorobenzyl)-2-(6-methoxypyridin-2-yl)-2H-1,2,4-benzothiadiazin-3(4H)-one 1,1-dioxide], the Ki is 13.8 nM.
For `COc1cc(F)c(CN2C(=O)N(c3ccnc(OC)c3)S(=O)(=O)c3ccccc32)c(F)c1` [Example 140, 4-(2,6-Difluoro-4-methoxybenzyl)-2-(2-methoxypyridin-4-yl)-2H-1,2,4-benzothiadiazin-3(4H)-one 1,1-dioxide] the value was 3.31 nM.
Next, `COc1cc(N2C(=O)N(Cc3c(F)cc(F)cc3Cl)c3ccccc3S2(=O)=O)ccn1` [Example 141, 4-(2-Chloro-4,6-difluorobenzyl)-2-(2-methoxypyridin-4-yl)-2H-1,2,4-benzothiadiazin-3(4H)-one 1,1-dioxide]: 6.92 nM; `Cc1ccc(N2C(=O)N(Cc3c(F)cccc3Cl)c3ccccc3S2(=O)=O)cn1` [Example 142, 4-(2-Chloro-6-fluorobenzyl)-2-(6-methylpyridin-3-yl)-2H-1,2,4-benzothiadiazin-3(4H)-one 1,1-dioxide]: 29.5 nM.
Next, `COc1cc(N2C(=O)N(Cc3c(F)cccc3Cl)c3ccccc3S2(=O)=O)ccn1` [Example 143, 4-(2-Chloro-6-fluorobenzyl)-2-(2-methoxypyridin-4-yl)-2H-1,2,4-benzothiadiazin-3(4H)-one 1,1-dioxide]: 15.8 nM; `COc1cccc(N2C(=O)N(Cc3c(F)cc(F)cc3F)c3ccccc3S2(=O)=O)n1` [Example 144, 2-(6-Methoxypyridin-2-yl)-4-(2,4,6-trifluorobenzyl)-2H-1,2,4-benzothiadiazin-3(4H)-one 1,1-dioxide]: 50.1 nM.
For `COc1cc(F)c(CN2C(=O)N(c3cnc(OC)c(OC)c3)S(=O)(=O)c3ccccc32)c(F)c1` [Example 146, 4-(2,6-difluoro-4-methoxybenzyl)-2-(5,6-Dimethoxypyridin-3-yl)-2H-1,2,4-benzothiadiazin-3(4H)-one 1,1-dioxide], the Ki was 0.363 nM.
Next, `COc1ccc(N2C(=O)N(Cc3c(F)cc(F)cc3F)c3ccccc3S2(=O)=O)nc1OC` [Example 147, 2-(5,6-Dimethoxypyridin-2-yl)-4-(2,4,6-trifluorobenzyl)-2H-1,2,4-benzothiadiazin-3(4H)-one 1,1-dioxide]: 1.58 nM; `COc1cc(N2C(=O)N(Cc3c(F)cc(F)cc3F)c3ccccc3S2(=O)=O)cc(OC)n1` [Example 148, 2-(2,6-Dimethoxypyridin-4-yl)-4-(2,4,6-trifluorobenzyl)-2H-1,2,4-benzothiadiazin-3(4H)-one 1,1-dioxide]: 1.38 nM.
Next, `COc1cc(F)c(CN2C(=O)N(c3cc(OC)nc(OC)c3)S(=O)(=O)c3ccccc32)c(F)c1` [Example 149, 4-(2,6-Difluoro-4-methoxybenzyl)-2-(2,6-dimethoxypyridin-4-yl)-2H-1,2,4-benzothiadiazin-3(4H)-one 1,1-dioxide]: 0.138 nM; `CCn1cc(N2C(=O)N(Cc3c(F)cccc3Cl)c3ccccc3S2(=O)=O)cn1` [Example 150, 4-(2-Chloro-6-fluorobenzyl)-2-(1-ethyl-1H-pyrazol-4-yl)-2H-1,2,4-benzothiadiazin-3(4H)-one 1,1-dioxide]: 17.4 nM.
Consider `CSc1cncc(N2C(=O)N(Cc3c(F)cccc3Cl)c3ccccc3S2(=O)=O)c1` [Example 151, 4-(2-Chloro-6-fluorobenzyl)-2-[5-(methylsulfanyl)pyridin-3-yl]-2H-1,2,4-benzothiadiazin-3(4H)-one 1,1-dioxide], for which the Ki was 2 nM.
For `CSc1cncc(N2C(=O)N(Cc3c(F)cc(F)cc3F)c3ccccc3S2(=O)=O)c1` [Example 152, 2-[5-(Methylsulfanyl)pyridin-3-yl]-4-(2,4,6-trifluorobenzyl)-2H-1,2,4-benzothiadiazin-3(4H)-one 1,1-dioxide] the value was 5.89 nM; for `COc1cc(F)c(CN2C(=O)N(c3ccc(OC)c(OC)n3)S(=O)(=O)c3ccccc32)c(F)c1` [Example 153, 4-(2,6-Difluoro-4-methoxybenzyl)-2-(5,6-dimethoxypyridin-2-yl)-2H-1,2,4-benzothiadiazin-3(4H)-one 1,1-dioxide], 0.224 nM; for `COc1cc(F)c(CN2C(=O)N(c3ccc(OC)nc3)S(=O)(=O)c3ccccc32)c(Cl)c1` [Example 154, 4-(2-Chloro-6-fluoro-4-methoxybenzyl)-2-(6-methoxypyridin-3-yl)-2H-1,2,4-benzothiadiazin-3(4H)-one 1,1-dioxide], 3.02 nM.
Next, `COc1cc(N2C(=O)N(Cc3c(F)cc(F)cc3Cl)c3ccccc3S2(=O)=O)cnc1OC` [Example 155, 4-(2-Chloro-4,6-difluorobenzyl)-2-(5,6-dimethoxypyridin-3-yl)-2H-1,2,4-benzothiadiazin-3(4H)-one 1,1-dioxide]: 1.74 nM; `O=C1N(Cc2c(F)cc(F)cc2F)c2ccccc2S(=O)(=O)N1Cc1cc(=O)[nH]c2ccccc12` [Example 156, 4-(2,4,6-Trifluorobenzyl)-2-[(2-oxo-1,2-dihydroquinolin-4-yl)methyl]-2H-1,2,4-benzothiadiazin-3(4H)-one 1,1-dioxide]: 11.2 nM.
For `COc1cc(N2C(=O)N(Cc3c(F)cc(F)cc3Cl)c3ccccc3S2(=O)=O)cc(OC)n1` [Example 157, 4-(2-Chloro-4,6-difluorobenzyl)-2-(2,6-dimethoxypyridin-4-yl)-2H-1,2,4-benzothiadiazin-3(4H)-one 1,1-dioxide] the value was 0.575 nM.
Take `CN(C)c1cccc(N2C(=O)N(Cc3c(F)cc(F)cc3F)c3ccccc3S2(=O)=O)n1` [Example 158, 2-[6-(Dimethylamino)pyridin-2-yl]-4-(2,4,6-trifluorobenzyl)-2H-1,2,4-benzothiadiazin-3(4H)-one 1,1-dioxide]: the Ki was 3.39 nM.
Next, `CN(C)c1cc(N2C(=O)N(Cc3c(F)cc(F)cc3F)c3ccccc3S2(=O)=O)ccn1` [Example 159, 2-[2-(Dimethylamino)pyridin-4-yl]-4-(2,4,6-trifluorobenzyl)-2H-1,2,4-benzothiadiazin-3(4H)-one 1,1-dioxide]: 3.09 nM; `CSc1ccc(N2C(=O)N(Cc3c(F)cc(F)cc3F)c3ccccc3S2(=O)=O)cn1` [Example 160, 2-[6-(Methylsulfanyl)pyridin-3-yl]-4-(2,4,6-trifluorobenzyl)-2H-1,2,4-benzothiadiazin-3(4H)-one 1,1-dioxide]: 17.4 nM; `COc1ccc(N2C(=O)N(Cc3c(F)cc(F)cc3Cl)c3ccccc3S2(=O)=O)nc1OC` [Example 161, 4-(2-Chloro-4,6-difluorobenzyl)-2-(5,6-dimethoxypyridin-2-yl)-2H-1,2,4-benzothiadiazin-3(4H)-one 1,1-dioxide]: 1.26 nM.
For `COc1cc(N2C(=O)N(Cc3ncc(F)cc3C)c3ccccc3S2(=O)=O)cc(OC)n1` [Example 162, 2-(2,6-Dimethoxypyridin-4-yl)-4-[(5-fluoro-3-methylpyridin-2-yl)methyl]-2H-1,2,4-benzothiadiazin-3(4H)-one 1,1-dioxide] the value was 18.6 nM; for `COc1cc(F)c(CN2C(=O)N(c3cc(OC)nc(OC)c3)S(=O)(=O)c3cccnc32)c(F)c1` [Example 163, 4-(2,6-Difluoro-4-methoxybenzyl)-2-(2,6-dimethoxypyridin-4-yl)-2H-pyrido[2,3-e][1,2,4]thiadiazin-3(4H)-one 1,1-dioxide], 1.38 nM.
For `COc1cc(F)c(CN2C(=O)N(c3ccc(OC)c(OC)n3)S(=O)(=O)c3cccnc32)c(F)c1` [Example 164, 4-(2,6-Difluoro-4-methoxybenzyl)-2-(5,6-dimethoxypyridin-2-yl)-2H-pyrido[2,3-e][1,2,4]thiadiazin-3(4H)-one 1,1-dioxide] the value was 0.661 nM; for `COc1cc(F)c(CN2C(=O)N(c3cnc(OC)c(OC)c3)S(=O)(=O)c3cccnc32)c(F)c1` [Example 165, 4-(2,6-Difluoro-4-methoxybenzyl)-2-(5,6-dimethoxypyridin-3-yl)-2H-pyrido[2,3-e][1,2,4]thiadiazin-3(4H)-one 1,1-dioxide], 0.676 nM; for `COc1cc(N2C(=O)N(Cc3c(F)cccc3Cl)c3ccccc3S2(=O)=O)cc(OC)n1` [Example 166, 4-(2-Chloro-6-fluorobenzyl)-2-(2,6-dimethoxypyridin-4-yl)-2H-1,2,4-benzothiadiazin-3(4H)-one 1,1-dioxide], 2.69 nM.
